According to the supplement of paper PMC10307832:

Experiments:
Assay in all cases: relative viability (nuclei count vs DMSO), 5 days (fraction); higher = more cells survive
[1] = compound: CCn1c(-c2nonc2N)nc2c(C#CC(C)(C)O)ncc(OC[C@H]3CCCNC3)c21 + CC1(C)CCC(c2ccc(Cl)cc2)=C(CN2CCN(c3ccc(C(=O)NS(=O)(=O)c4ccc(N[C@H](CCN5CCOCC5)CSc5ccccc5)c(S(=O)(=O)C(F)(F)F)c4)cc3)CC2)C1 [Navitoclax] (partner 0.5 µM)
In short: (§1)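 Each reported value is a median over duplicate plates. It expresses relative viability: treated-well nuclei count divided by vehicle-well nuclei count. Lung cancer cell lines in 1536-well plates were dosed by pin tool a day after seeding, alone with one drug or with a fixed anchor-drug dose plus five library-drug doses (not always all listed) in √10 steps, and nuclei were counted after 5 days.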

[2] = compound: CCn1c(-c2nonc2N)nc2c(C#CC(C)(C)O)ncc(OC[C@H]3CCCNC3)c21 + C[C@@H](Oc1cc(-c2cnn(C3CCNCC3)c2)cnc1N)c1c(Cl)ccc(F)c1Cl [Crizotinib] (partner 1 µM)
In short: as §1

[3] = compound: CCn1c(-c2nonc2N)nc2c(C#CC(C)(C)O)ncc(OC[C@H]3CCCNC3)c21 + Nc1nc2[nH]cc(CCc3ccc(C(=O)N[C@@H](CCC(=O)O)C(=O)O)cc3)c2c(=O)[nH]1 [Pemetrexed] (partner 0.2 µM)
In short: as §1

BAM7 + Tozasertib = compound: CCOC1=CC=CC=C1N=NC2=C(NN(C2=O)C3=NC(=CS3)C4=CC=CC=C4)C [BAM7] + Cc1cc(Nc2cc(N3CCN(C)CC3)nc(Sc3ccc(NC(=O)C4CC4)cc3)n2)n[nH]1 [Tozasertib] (partner 0.1 µM)
In short: as §1

Cell Line | relative viability ([1]; first compound 0.01 µM) | relative viability ([1]; first compound 0.03162 µM) | relative viability ([1]; first compound 0.1 µM) | relative viability ([1]; first compound 0.3162 µM) | relative viability ([1]; first compound 1 µM) | relative viability ([2]; first compound 0.01 µM) | relative viability ([2]; first compound 0.03162 µM) | relative viability ([2]; first compound 0.1 µM) | relative viability ([2]; first compound 0.3162 µM) | relative viability ([2]; first compound 1 µM) | relative viability ([3]; first compound 0.01 µM) | relative viability ([3]; first compound 0.03162 µM) | relative viability ([3]; first compound 0.1 µM) | relative viability ([3]; first compound 0.3162 µM) | relative viability ([3]; first compound 1 µM) | relative viability (BAM7 + Tozasertib; first compound 0.5 µM) | relative viability (BAM7 + Tozasertib; first compound 5 µM) | relative viability (BAM7 + Tozasertib; first compound 15.81 µM) | relative viability (BAM7 + Tozasertib; first compound 50 µM)
LOU-NH91 | 0.691 | 0.709 | 0.697 | 0.632 | 0.572 | 0.758 | 0.747 | 0.742 | 0.543 | 0.754 | 0.403 | 0.366 | 0.419 | 0.4 | 0.399 | 0.667 | 0.702 | 0.674 | 0.689
NCI-H3122 | 1.05 | 1 | 1.06 | 1.01 | 1.04 | 0.276 | 0.312 | 0.264 | 0.283 | 0.276 | 0.206 | 0.208 | 0.201 | 0.195 | 0.2 | 0.44 | 0.387 | 0.351 | 0.324
NCI-H460 | 1.1 | 1.17 | 1.13 | 1.05 | 1.19 | 0.895 | 1.07 | 0.814 | 0.786 | 0.884 | 0.0616 | 0.0628 | 0.063 | 0.0642 | 0.0565 | 0.4 | 0.0975 | 0.123 | 0.131
NCI-H1734 | 0.781 | 0.921 | 0.814 | 0.821 | 0.816 | 0.629 | 0.721 | 0.682 | 0.685 | 0.641 | 0.389 | 0.419 | 0.385 | 0.391 | 0.431 | 0.289 | 0.253 | 0.246 | 0.248
LXF-289 | 0.978 | 0.949 | 0.935 | 0.886 | 0.926 | 0.856 | 0.815 | 0.797 | 0.758 | 0.828 | 0.922 | 0.95 | 0.925 | 0.84 | 0.938 | 0.206 | 0.215 | 0.183 | 0.19
H3255 | 0.526 | 0.571 | 0.429 | 0.407 | 0.466 | 0.805 | 0.983 | 0.804 | 0.598 | 0.782 | 0.543 | 0.571 | 0.618 | 0.536 | 0.548 | 0.652 | 0.757 | 0.376 | 0.497
201T | 1.21 | 1.22 | 1.26 | 1.19 | 1.17 | 1.01 | 1.03 | 1.04 | 1 | 1.03 | 0.321 | 0.317 | 0.343 | 0.333 | 0.311 | 0.737 | 0.805 | 0.673 | 0.726
NCI-H2126 | 0.908 | 0.848 | 0.847 | 0.927 | 0.88 | 1.01 | 1 | 0.993 | 0.974 | 1.06 | 0.706 | 0.692 | 0.684 | 0.731 | 0.669 | 0.836 | 0.679 | 0.643 | 0.74
HOP-62 | 0.997 | 0.942 | 1.04 | 0.951 | 1.05 | 0.769 | 0.978 | 0.929 | 0.874 | 0.888 | 0.289 | 0.407 | 0.289 | 0.288 | 0.286 | 0.417 | 0.413 | 0.337 | 0.308
CAL-12T | 1.24 | 1.22 | 1.3 | 1.33 | 1.06 | 0.8 | 0.653 | 0.546 | 0.738 | 0.84 | 1.12 | 1.2 | 1.13 | 0.994 | 1.2 | 0.311 | 0.257 | 0.236 | 0.24
NCI-H520 | 1.05 | 1.11 | 1.05 | 0.934 | 0.797 | 0.732 | 1.02 | 0.616 | 0.644 | 0.452 | 0.565 | 0.686 | 0.577 | 0.523 | 0.352 | 0.416 | 0.51 | 0.436 | 0.405
NCI-H1755 | 0.985 | 0.984 | 0.981 | 0.958 | 1.01 | 0.877 | 0.866 | 0.84 | 0.892 | 0.849 | 0.476 | 0.439 | 0.419 | 0.393 | 0.383 | 0.602 | 0.615 | 0.55 | 0.644
NCI-H2023 | 1.02 | 0.98 | 0.972 | 0.932 | 1.01 | 0.683 | 0.67 | 0.557 | 0.583 | 0.549 | 0.211 | 0.26 | 0.211 | 0.176 | 0.178 | 0.234 | 0.161 | 0.125 | 0.177
NCI-H2009 | 1.17 | 1.17 | 1.2 | 1.12 | 1.11 | 0.941 | 1.03 | 1.09 | 1.02 | 1.07 | 1.08 | 1.09 | 1.06 | 1.14 | 1.06 | 0.832 | 0.763 | 0.62 | 0.608
